Assay results published in ChEMBL document CHEMBL3627608, “Crystal structures of human RIP2 kinase catalytic domain complexed with ATP-competitive inhibitors: Foundations for understanding inhibitor selectivity” (Bioorg Med Chem, 2015).

Assays:
[1] = biological target: Casein kinase I isoform gamma-2 (Homo sapiens) (UniProt P78368); experiment: Inhibition of CK1gamma2 (unknown origin) at 10 uM after 120 mins P33 radiolabeled kinase activity assay
[2] = biological target: Ribosomal protein S6 kinase alpha-1 (Homo sapiens) (UniProt Q15418); experiment: Inhibition of RSK1 (unknown origin) at 10 uM after 120 mins P33 radiolabeled kinase activity assay
[3] = biological target: T1, Aurora kinase A (Homo sapiens) (UniProt O14965); experiment: Inhibition of Aurora A (unknown origin) at 10 uM after 120 mins P33 radiolabeled kinase activity assay
T1 sequence (whole entry): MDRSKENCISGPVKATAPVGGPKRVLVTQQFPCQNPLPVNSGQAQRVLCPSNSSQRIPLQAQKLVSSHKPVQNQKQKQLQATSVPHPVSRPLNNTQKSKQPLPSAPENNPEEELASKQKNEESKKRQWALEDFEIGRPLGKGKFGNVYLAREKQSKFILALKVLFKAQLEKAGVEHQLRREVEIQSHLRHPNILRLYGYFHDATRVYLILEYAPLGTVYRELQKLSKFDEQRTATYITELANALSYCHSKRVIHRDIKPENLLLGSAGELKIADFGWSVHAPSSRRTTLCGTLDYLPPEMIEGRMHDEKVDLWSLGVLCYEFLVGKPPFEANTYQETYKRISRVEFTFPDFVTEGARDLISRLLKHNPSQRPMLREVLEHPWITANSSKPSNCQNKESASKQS

[4] = biological target: Mitogen-activated protein kinase kinase kinase 9 (Homo sapiens) (UniProt P80192); experiment: Inhibition of MLK1 (unknown origin) at 10 uM after 120 mins P33 radiolabeled kinase activity assay
[5] = biological target: T2, Dual specificity tyrosine-phosphorylation-regulated kinase 3 (Homo sapiens) (UniProt O43781); experiment: Inhibition of DYRK3 (unknown origin) at 10 uM after 120 mins P33 radiolabeled kinase activity assay
T2 sequence (whole entry): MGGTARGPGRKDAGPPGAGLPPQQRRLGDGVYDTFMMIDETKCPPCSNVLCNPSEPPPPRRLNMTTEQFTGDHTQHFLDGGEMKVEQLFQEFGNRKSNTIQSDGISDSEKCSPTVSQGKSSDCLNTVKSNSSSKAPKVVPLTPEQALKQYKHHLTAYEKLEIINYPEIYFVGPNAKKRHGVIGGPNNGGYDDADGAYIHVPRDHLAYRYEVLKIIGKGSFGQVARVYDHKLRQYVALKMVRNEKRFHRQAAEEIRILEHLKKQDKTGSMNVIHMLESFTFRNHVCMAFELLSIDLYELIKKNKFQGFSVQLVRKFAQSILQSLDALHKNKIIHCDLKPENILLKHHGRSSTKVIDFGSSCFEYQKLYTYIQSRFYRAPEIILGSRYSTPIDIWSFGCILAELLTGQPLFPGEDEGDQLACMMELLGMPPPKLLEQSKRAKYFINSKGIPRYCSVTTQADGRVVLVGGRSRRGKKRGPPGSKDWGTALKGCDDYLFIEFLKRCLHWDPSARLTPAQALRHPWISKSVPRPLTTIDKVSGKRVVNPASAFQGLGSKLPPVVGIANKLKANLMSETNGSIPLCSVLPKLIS

[6] = biological target: Fibroblast growth factor receptor 2 (Homo sapiens) (UniProt P21802); experiment: Inhibition of FGFR2 (unknown origin) at 10 uM after 120 mins P33 radiolabeled kinase activity assay
[7] = biological target: Glycogen synthase kinase-3 alpha (Homo sapiens) (UniProt P49840); experiment: Inhibition of GSK3alpha (unknown origin) at 10 uM after 120 mins P33 radiolabeled kinase activity assay
[8] = biological target: Casein kinase I isoform epsilon (Homo sapiens) (UniProt P49674); experiment: Inhibition of CK1epsilon (unknown origin) at 10 uM after 120 mins P33 radiolabeled kinase activity assay
[9] = biological target: Calcium/calmodulin-dependent protein kinase type 1D (Homo sapiens) (UniProt Q8IU85); experiment: Inhibition of CAMK1delta (unknown origin) at 10 uM after 120 mins P33 radiolabeled kinase activity assay
[10] = biological target: Interleukin-1 receptor-associated kinase 1 (Homo sapiens) (UniProt P51617); experiment: Inhibition of IRAK1 (unknown origin) at 10 uM after 120 mins P33 radiolabeled kinase activity assay
Interleukin-1 receptor-associated kinase 1 (Homo sapiens), sequence (P51617 whole entry, looked up): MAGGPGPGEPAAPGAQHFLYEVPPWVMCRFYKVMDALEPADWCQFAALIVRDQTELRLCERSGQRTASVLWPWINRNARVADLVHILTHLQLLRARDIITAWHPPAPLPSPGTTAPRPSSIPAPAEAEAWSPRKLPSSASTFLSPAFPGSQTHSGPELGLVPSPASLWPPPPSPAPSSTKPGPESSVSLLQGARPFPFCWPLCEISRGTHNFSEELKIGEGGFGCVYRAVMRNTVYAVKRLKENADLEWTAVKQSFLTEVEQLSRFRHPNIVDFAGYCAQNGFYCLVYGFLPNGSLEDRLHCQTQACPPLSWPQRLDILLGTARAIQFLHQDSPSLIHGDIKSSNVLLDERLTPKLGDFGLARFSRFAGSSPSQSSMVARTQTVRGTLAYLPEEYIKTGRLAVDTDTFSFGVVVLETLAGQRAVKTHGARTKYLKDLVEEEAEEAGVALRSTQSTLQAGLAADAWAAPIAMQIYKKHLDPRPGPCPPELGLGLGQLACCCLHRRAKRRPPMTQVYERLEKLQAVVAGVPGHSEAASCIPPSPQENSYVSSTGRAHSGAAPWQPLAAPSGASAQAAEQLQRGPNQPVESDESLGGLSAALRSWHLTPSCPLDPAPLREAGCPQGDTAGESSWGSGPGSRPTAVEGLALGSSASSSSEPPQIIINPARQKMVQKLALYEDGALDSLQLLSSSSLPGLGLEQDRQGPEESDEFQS

[11] = biological target: Tyrosine-protein kinase Srms (Homo sapiens) (UniProt Q9H3Y6); experiment: Inhibition of SRMS (unknown origin) at 10 uM after 120 mins P33 radiolabeled kinase activity assay
[12] = biological target: Epidermal growth factor receptor (Homo sapiens) (UniProt P00533); experiment: Inhibition of EGFR (unknown origin) at 10 uM after 120 mins P33 radiolabeled kinase activity assay
Epidermal growth factor receptor (Homo sapiens), sequence (P00533 whole entry): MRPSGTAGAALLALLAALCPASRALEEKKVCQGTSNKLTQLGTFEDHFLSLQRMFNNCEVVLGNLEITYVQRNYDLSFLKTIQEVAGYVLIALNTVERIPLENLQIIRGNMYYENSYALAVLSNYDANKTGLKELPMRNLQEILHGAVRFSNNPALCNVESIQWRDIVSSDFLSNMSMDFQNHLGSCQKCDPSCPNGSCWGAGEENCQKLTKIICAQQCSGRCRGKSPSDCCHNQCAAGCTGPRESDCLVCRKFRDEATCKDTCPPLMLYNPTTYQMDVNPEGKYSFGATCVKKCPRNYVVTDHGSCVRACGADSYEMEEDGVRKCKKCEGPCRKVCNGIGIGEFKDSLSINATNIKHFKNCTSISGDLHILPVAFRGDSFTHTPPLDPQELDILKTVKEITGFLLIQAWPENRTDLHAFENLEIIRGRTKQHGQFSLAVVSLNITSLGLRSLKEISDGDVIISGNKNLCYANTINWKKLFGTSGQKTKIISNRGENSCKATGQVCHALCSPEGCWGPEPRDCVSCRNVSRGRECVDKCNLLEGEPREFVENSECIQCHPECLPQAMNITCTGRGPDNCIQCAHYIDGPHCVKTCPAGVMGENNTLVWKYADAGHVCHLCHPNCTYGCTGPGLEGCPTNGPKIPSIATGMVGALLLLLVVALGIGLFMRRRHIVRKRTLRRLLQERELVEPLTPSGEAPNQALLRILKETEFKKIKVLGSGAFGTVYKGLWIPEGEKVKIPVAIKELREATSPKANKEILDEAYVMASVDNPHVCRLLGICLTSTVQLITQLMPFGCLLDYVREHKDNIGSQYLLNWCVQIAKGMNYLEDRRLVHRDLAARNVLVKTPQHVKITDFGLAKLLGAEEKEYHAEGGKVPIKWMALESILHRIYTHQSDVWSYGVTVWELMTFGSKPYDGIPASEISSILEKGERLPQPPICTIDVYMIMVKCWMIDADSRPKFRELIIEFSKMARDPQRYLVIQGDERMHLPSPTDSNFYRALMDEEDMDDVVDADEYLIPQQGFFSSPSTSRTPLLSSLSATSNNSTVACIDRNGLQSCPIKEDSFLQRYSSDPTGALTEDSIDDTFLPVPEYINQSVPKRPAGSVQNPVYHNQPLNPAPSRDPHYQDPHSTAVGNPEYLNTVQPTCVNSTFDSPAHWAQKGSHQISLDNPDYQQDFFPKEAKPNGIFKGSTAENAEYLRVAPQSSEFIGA

[13] = biological target: T3, Mitogen-activated protein kinase kinase kinase kinase 3 (Homo sapiens) (UniProt Q8IVH8); experiment: Inhibition of GLK (unknown origin) at 10 uM after 120 mins P33 radiolabeled kinase activity assay
T3 sequence (whole entry): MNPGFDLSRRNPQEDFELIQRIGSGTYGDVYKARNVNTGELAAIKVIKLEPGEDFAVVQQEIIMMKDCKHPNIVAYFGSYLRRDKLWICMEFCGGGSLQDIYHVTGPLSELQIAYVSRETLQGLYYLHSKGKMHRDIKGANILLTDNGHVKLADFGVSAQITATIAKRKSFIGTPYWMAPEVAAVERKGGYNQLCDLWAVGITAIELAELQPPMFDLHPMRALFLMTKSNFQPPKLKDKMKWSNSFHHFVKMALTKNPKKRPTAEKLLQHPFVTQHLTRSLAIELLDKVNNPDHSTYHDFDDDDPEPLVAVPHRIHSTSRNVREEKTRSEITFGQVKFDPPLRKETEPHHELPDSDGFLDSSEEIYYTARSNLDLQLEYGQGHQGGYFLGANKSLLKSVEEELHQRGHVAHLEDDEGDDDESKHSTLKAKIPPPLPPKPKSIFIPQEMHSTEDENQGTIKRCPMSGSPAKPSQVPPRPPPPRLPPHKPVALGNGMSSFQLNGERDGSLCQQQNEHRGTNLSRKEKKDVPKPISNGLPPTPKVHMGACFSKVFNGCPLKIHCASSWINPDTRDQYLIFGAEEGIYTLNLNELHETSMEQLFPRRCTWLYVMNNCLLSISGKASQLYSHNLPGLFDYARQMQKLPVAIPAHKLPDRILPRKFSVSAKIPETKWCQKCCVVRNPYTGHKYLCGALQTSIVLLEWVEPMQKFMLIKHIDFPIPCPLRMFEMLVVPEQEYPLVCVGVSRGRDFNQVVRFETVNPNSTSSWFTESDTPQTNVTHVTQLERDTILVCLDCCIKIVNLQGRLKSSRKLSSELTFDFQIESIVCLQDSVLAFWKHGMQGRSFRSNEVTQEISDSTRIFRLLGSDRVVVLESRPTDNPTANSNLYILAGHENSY

[14] = biological target: ALK tyrosine kinase receptor (Homo sapiens) (UniProt Q9UM73); experiment: Inhibition of ALK (unknown origin) at 10 uM after 120 mins P33 radiolabeled kinase activity assay
ALK tyrosine kinase receptor (Homo sapiens), sequence (Q9UM73 19-1620 limits assumed): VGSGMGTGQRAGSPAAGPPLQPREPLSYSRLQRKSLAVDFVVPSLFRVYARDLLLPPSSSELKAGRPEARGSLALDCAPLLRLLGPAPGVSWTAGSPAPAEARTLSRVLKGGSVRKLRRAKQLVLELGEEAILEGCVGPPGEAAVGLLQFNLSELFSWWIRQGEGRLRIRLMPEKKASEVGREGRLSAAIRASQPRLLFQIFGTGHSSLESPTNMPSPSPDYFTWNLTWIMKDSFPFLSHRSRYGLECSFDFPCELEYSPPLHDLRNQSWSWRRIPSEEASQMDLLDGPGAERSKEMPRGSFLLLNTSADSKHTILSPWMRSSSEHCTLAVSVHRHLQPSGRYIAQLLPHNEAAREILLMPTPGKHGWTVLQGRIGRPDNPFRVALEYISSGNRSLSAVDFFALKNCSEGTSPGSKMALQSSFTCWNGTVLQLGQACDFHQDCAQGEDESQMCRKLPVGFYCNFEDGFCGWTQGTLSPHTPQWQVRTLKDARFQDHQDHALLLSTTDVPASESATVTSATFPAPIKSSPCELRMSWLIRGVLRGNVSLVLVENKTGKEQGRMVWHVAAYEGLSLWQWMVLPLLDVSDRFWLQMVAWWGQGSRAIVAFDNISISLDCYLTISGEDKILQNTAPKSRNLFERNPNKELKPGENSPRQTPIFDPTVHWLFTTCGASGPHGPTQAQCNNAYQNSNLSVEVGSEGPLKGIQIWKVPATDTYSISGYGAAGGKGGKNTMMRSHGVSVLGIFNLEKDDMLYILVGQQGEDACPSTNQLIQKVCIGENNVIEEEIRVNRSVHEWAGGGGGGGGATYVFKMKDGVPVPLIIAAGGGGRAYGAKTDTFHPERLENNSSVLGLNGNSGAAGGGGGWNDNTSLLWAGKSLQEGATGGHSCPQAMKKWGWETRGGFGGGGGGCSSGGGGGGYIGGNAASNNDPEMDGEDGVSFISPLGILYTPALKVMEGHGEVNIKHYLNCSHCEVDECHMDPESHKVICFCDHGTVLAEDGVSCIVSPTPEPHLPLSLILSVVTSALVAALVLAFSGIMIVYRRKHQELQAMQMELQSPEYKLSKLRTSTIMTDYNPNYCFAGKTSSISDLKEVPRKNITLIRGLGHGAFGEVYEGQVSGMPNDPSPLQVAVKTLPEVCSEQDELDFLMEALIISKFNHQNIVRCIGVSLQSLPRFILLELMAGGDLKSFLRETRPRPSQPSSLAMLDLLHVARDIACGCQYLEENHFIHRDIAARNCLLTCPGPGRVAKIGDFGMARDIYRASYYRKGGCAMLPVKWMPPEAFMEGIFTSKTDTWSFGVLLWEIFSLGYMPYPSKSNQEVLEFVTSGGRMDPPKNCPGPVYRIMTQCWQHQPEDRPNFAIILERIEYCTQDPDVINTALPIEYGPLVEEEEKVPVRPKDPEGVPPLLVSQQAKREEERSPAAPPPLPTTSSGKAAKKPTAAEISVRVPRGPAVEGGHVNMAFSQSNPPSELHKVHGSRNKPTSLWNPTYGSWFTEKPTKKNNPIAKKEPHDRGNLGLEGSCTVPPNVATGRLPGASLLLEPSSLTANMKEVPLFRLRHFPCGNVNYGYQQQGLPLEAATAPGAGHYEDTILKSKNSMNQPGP

[15] = biological target: Macrophage colony-stimulating factor 1 receptor (Homo sapiens) (UniProt P07333); experiment: Inhibition of FMS (unknown origin) at 10 uM after 120 mins P33 radiolabeled kinase activity assay
Macrophage colony-stimulating factor 1 receptor (Homo sapiens), sequence (P07333 whole entry): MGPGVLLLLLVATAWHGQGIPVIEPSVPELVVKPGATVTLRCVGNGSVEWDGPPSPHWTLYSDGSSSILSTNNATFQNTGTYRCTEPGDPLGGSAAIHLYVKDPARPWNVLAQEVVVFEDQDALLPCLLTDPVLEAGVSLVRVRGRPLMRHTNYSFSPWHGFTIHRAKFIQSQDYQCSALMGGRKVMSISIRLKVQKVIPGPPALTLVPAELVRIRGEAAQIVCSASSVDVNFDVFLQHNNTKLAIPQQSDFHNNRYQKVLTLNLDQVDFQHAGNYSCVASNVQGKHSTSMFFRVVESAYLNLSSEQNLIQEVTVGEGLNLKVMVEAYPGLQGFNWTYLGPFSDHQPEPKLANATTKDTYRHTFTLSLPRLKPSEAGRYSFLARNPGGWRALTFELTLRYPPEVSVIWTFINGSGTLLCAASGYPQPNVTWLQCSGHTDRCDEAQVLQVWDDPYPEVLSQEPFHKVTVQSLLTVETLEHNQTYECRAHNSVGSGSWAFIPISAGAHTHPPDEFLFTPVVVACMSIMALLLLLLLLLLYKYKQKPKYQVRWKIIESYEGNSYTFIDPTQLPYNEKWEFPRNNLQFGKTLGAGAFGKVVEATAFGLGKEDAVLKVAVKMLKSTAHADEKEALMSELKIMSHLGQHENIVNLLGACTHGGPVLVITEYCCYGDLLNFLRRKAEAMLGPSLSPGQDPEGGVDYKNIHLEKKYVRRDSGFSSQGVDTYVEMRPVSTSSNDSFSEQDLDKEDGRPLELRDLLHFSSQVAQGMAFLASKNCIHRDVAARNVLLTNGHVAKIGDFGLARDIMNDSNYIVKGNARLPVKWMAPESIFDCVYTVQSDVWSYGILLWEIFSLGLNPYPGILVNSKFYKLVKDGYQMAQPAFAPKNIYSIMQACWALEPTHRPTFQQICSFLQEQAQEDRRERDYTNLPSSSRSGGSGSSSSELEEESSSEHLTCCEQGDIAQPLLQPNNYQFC

Casein kinase I isoform gamma-2 (Homo sapiens), sequence (P78368 whole entry, looked up, canonical isoform): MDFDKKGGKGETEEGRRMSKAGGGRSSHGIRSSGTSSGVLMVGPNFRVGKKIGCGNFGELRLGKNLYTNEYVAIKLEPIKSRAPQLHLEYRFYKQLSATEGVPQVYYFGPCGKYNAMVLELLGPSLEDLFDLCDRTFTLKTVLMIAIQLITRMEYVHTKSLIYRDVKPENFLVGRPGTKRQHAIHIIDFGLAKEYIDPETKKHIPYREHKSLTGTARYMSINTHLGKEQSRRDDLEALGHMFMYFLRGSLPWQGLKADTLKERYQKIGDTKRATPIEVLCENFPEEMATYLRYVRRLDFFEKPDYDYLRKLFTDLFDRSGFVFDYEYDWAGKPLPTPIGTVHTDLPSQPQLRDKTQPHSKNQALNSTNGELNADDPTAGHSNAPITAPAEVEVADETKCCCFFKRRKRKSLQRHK

Compound	inhibition [1] [%]	inhibition [2] [%]	inhibition [3] [%]	inhibition [4] [%]	inhibition [5] [%]	inhibition [6] [%]	inhibition [7] [%]	inhibition [8] [%]	inhibition [9] [%]	inhibition [10] [%]	inhibition [11] [%]	inhibition [12] [%]	inhibition [13] [%]	inhibition [14] [%]	inhibition [15] [%]
COCCNC(=O)c1ccc2c(c1)nc(-c1cnc(-c3ccc(Cl)cc3)[nH]1)n2CCOC	11.4	11.6	13.9	11	8.42	4.14	5.43	44.4	3.59	5.62	4.18	7.68	4.53	0.02	5.32
CS(=O)(=O)c1cccc(Nc2nccc(-c3sc(N4CCOCC4)nc3-c3cccc(NS(=O)(=O)c4c(F)cccc4F)c3)n2)c1	34.5	73	83.4	94.4	10.3	64.4	98.9	36.8	76.3	27.6	98.4	88	56.2	6.1	43.9
CC(C)(C)c1cc(NC(=O)Nc2ccc(Oc3ccncc3)cc2)no1	20.1	52	48.4	29.7	71.4	79.4	37.8	5.92	8.06	99.1	-2.8	6.23	41.9	17.4	98.2
